Data: patent publication US20240132450A1, “MODULATORS OF G PROTEIN-COUPLED RECEPTOR 88” (ACADIA Pharmaceuticals Inc., priority 2020, published 2024)

Molecular target: hGPR88 receptor (Homo sapiens, UniProt Q9GZN0)
Test: hGPR88-HEK cAMP accumulation assay
Conditions: GRP88 agonist activity (EC50), HEK-293 cells expressing human recombinant GPR88, forskolin 200 nM, High/Medium/Low bands
Protocol: Biological Assay 1: hGPR88-HEK cAMP Accumulation Assay
Cryopreserved vials of HEK-293 cells expressing human recombinant GPR88 receptor are re-suspended in KRH assay buffer and 5 μl of cell solution is suspended in test wells at a seeding density of 2500±500 cells per well using the multidrop to provide a final reaction volume of 10 μl containing 0.5% DMSO. Assay plate is incubated for 30 min at room temperature and the reaction is terminated by addition of 5 μl of each of the cAMP detection reagents of the cAMP Gi kit (Cisbio Bioassays, 62AM9PEJ), diluted in cell lysis buffer, to each well using the multidrop in the following order: first the cAMP-d2 conjugate, then the anti-cAMP cryptate conjugate. […] Raw counts were converted to cAMP concentrations via a standard curve before EC50 and Emax determination. Data is expressed as % decrease in forskolin stimulated cAMP compared to cells treated with vehicle alone in the same buffer and on the same plate.

hGPR88 receptor, sequence (Q9GZN0 whole entry): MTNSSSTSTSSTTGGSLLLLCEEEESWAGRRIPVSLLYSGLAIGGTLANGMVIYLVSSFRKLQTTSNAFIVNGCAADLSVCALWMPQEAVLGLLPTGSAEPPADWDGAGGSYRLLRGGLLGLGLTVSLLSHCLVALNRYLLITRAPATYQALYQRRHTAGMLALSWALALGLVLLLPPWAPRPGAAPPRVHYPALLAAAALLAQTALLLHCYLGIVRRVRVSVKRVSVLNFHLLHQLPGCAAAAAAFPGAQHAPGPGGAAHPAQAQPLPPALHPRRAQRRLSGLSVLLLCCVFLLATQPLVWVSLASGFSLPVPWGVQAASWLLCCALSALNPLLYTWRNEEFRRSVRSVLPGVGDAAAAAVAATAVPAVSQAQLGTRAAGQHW

EC50 [nM] | SMILES
< 1000 | CCCCN(C(=O)C(C)(C)Oc1ccc(F)cc1)c1ccc(-c2ccc(COC)cc2)cc1 [Example 28, N-butyl-2-(4-fluorophenoxy)-N-(4′-(methoxymethyl)-[1,1′-biphenyl]-4-yl)-2-methylpropanamide]
1000 to 5000 | COCc1ccc(-c2ccc(N(CC3CC3)C(=O)C(C)(C)Oc3ccc(F)cc3)cc2)cc1 [Example 29, N-(cyclopropylmethyl)-2-(4-fluorophenoxy)-N-(4′-(methoxymethyl)-[1,1′-biphenyl]-4-yl)-2-methylpropanamide]
1000 to 5000 | COCc1ccc(-c2ccc(N(CCO)C(=O)C(C)(C)Oc3ccc(F)cc3)cc2)cc1 [Example 33, 2-(4-fluorophenoxy)-N-(2-hydroxyethyl)-N-(4′-(methoxymethyl)-[1,1′-biphenyl]-4-yl)-2-methylpropanamide]
1000 to 5000 | COCc1ccc(-c2ccc(N(CC(C)(C)O)C(=O)C(C)(C)Oc3ccc(F)cc3)cc2)cc1 [Example 39, 2-(4-fluorophenoxy)-N-(2-hydroxy-2-methylpropyl)-N-(4′-(methoxymethyl)-[1,1′-biphenyl]-4-yl)-2-methylpropanamide]
1000 to 5000 | COCc1ccc(-c2ccc(NC(=O)C(C)(C)Oc3ccc(F)cc3)nc2)cc1 [Example 40, 2-(4-fluorophenoxy)-N-(5-(4-(methoxymethyl)phenyl)pyridin-2-yl)-2-methylpropanamide]
> 5000 | CC(C)Cc1ccc(-c2ccc(NC(=O)C(C)(C)Oc3ccc(F)cc3)cc2)cc1 [Example 42, 2-(4-fluorophenoxy)-N-(4′-isobutyl-[1,1′-biphenyl]-4-yl)-2-methylpropanamide]
> 5000 | CCOc1ccc(-c2ccc(NC(=O)C(C)(C)Oc3ccc(F)cc3)cc2)cc1 [Example 51, N-(4′-ethoxy-[1,1′-biphenyl]-4-yl)-2-(4-fluorophenoxy)-2-methylpropanamide]
> 5000 | CC(C)(Oc1ccc(F)cc1)C(=O)Nc1ccc(-c2ccc(S(C)(=O)=O)cc2)cc1 [Example 52, 2-(4-fluorophenoxy)-2-methyl-N-(4′-(methylsulfonyl)-[1,1′-biphenyl]-4-yl)propenamide]
< 1000 | COCc1ccc(-c2ccc(NC(=O)C(C)(C)Cc3ccc(F)cc3)cc2)cc1 [Example 55, 3-(4-fluorophenyl)-N-(4′-(methoxymethyl)-[1,1′-biphenyl]-4-yl)-2,2-dimethylpropanamide]
< 1000 | CCc1ccc(OC(C)(C)C(=O)Nc2ccc(-c3ccc(COC)cc3)cc2)cc1 [Example 57, 2-(4-ethylphenoxy)-N-(4′-(methoxymethyl)-[1,1′-biphenyl]-4-yl)-2-methylpropanamide]
< 1000 | COCc1ccc(-c2ccc(NC(=O)C(C)(C)Oc3ccc(Br)cc3)cc2)cc1 [Example 59, 2-(4-bromophenoxy)-N-(4′-(methoxymethyl)-[1,1′-biphenyl]-4-yl)-2-methylpropanamide]
< 1000 | COCc1ccc(-c2ccc(NC(=O)C(C)(C)Oc3ccc(C(C)C)cc3)cc2)cc1 [Example 60, 2-(4-isopropylphenoxy)-N-(4′-(methoxymethyl)-[1,1′-biphenyl]-4-yl)-2-methylpropanamide]
< 1000 | COCc1ccc(-c2ccc(NC(=O)C(C)(C)Oc3cccc(F)c3)cc2)cc1 [Example 62, 2-(3-fluorophenoxy)-N-(4′-(methoxymethyl)-[1,1′-biphenyl]-4-yl)-2-methylpropanamide]
< 1000 | COCc1ccc(-c2ccc(NC(=O)C(C)(C)Oc3ccc(OC)cc3)cc2)cc1 [Example 66, N-(4′-(methoxymethyl)-[1,1′-biphenyl]-4-yl)-2-(4-methoxyphenoxy)-2-methylpropanamide]
> 5000 | CCCc1ccc(-c2ccc(NC(=O)C(C)(C)Oc3ccc(F)cc3)cc2)cc1 [Example 84, 2-(4-fluorophenoxy)-2-methyl-N-(4′-propyl-[1,1′-biphenyl]-4-yl)propanamide]
< 1000 | CCOCc1ccc(-c2ccc(NC(=O)C(C)(C)Oc3ccc(F)cc3)cc2)cc1 [Example 86, N-(4′-(ethoxymethyl)-[1,1′-biphenyl]-4-yl)-2-(4-fluorophenoxy)-2-methylpropanamide]

The next lines start with the compound.

SMILES | EC50 [nM]
CC(C)(Oc1ccc(F)cc1)C(=O)Nc1ccc(-c2ccc(C(=O)N3CCOCC3)cc2)cc1 [Example 27, 2-(4-fluorophenoxy)-2-methyl-N-(4′-(morpholine-4-carbonyl)-[1,1′-biphenyl]-4-yl)propenamide] | 1000 to 5000
CCOc1ncc(-c2ccc(NC(=O)C(C)(C)Oc3ccc(F)cc3)cc2)cn1 [Example 30, N-(4-(2-ethoxypyrimidin-5-yl)phenyl)-2-(4-fluorophenoxy)-2-methylpropanamide] | 1000 to 5000
CC(C)(Oc1ccc(F)cc1)C(=O)Nc1ccc(-c2cnc(C(F)(F)F)nc2)cc1 [Example 38, 2-(4-fluorophenoxy)-2-methyl-/-(4-(2-(trifluoromethyl)pyrimidin-5-yl)phenyl)propenamide] | > 5000
CC(C)(Oc1ccc(F)cc1)C(=O)Nc1ccc(-c2ccc(OC3CC3)cc2)cc1 [Example 41, N-(4′-cyclopropoxy-[1,1′-biphenyl]-4-yl)-2-(4-fluorophenoxy)-2-methylpropanamide] | > 5000
CC(C)Oc1ccc(-c2ccc(NC(=O)C(C)(C)Oc3ccc(F)cc3)cc2)cc1 [Example 46, 2-(4-fluorophenoxy)-N-(4′-isopropoxy-[1,1′-biphenyl]-4-yl)-2-methylpropanamide] | < 1000
CC(c1ccc(-c2ccc(NC(=O)C(C)(C)Oc3ccc(F)cc3)cc2)cc1)N1CCOCC1 (stereo not shown) [Example 47, 2-(4-fluorophenoxy)-2-methyl-N-(4′-(1-morpholinoethyl)-[1,1′-biphenyl]-4-yl)propanamide] | 1000 to 5000
COCc1ccc(-c2ccc(NC(=O)C(C)(C)Cc3ccccc3)cc2)cc1 [Example 56, N-(4′-(methoxymethyl)-[1,1′-biphenyl]-4-yl)-2,2-dimethyl-3-phenylpropanamide] | 1000 to 5000
COCc1ccc(-c2ccc(NC(=O)C(C)(C)Oc3cccc(C)c3)cc2)cc1 [Example 58, N-(4′-(methoxymethyl)-[1,1′-biphenyl]-4-yl)-2-methyl-2-(m-tolyloxy)propenamide] | < 1000
COCc1ccc(-c2ccc(NC(=O)C(C)(C)Oc3ccc(F)cc3F)cc2)cc1 [Example 63, 2-(2,4-difluorophenoxy)-N-(4′-(methoxymethyl)-[1,1′-biphenyl]-4-yl)-2-methylpropanamide] | < 1000
COCc1ccc(-c2ccc(NC(=O)C(C)(C)Oc3ccccc3C)cc2)cc1 [Example 64, N-(4′-(methoxymethyl)-[1,1′-biphenyl]-4-yl)-2-methyl-2-(o-tolylox)propenamide] | < 1000
COCc1ccc(-c2ccc(NC(=O)C(C)(C)Oc3cccc(Cl)c3)cc2)cc1 [Example 65, 2-(3-chlorophenoxy)-N-(4′-(methoxymethyl)-[1,1′-biphenyl]-4-yl)-2-methylpropanamide] | < 1000
COCc1ccc(-c2ccc(NC(=O)C(C)(C)Oc3ccccc3Cl)cc2)cc1 [Example 67, 2-(2-chlorophenoxy)-N-(4′-(methoxymethyl)-[1,1′-biphenyl]-4-yl)-2-methylpropanamide] | < 1000
COCc1ccc(-c2ccc(NC(=O)C(C)(C)Oc3cccnn3)cc2)cc1 [Example 69, N-(4′-(methoxymethyl)-[1,1′-biphenyl]-4-yl)-2-methyl-2-(pyridazin-3-yloxy)propenamide] | > 5000
COCc1ccc(-c2ccc(NC(=O)C(C)(C)Oc3ccc(C(F)(F)F)cn3)cc2)cc1 [Example 71, N-(4′-(methoxymethyl)-[1,1′-biphenyl]-4-yl)-2-methyl-2-((5-(trifluoromethyl)pyridin-2-yl)oxy)propenamide] | > 5000
CN1CCN(Cc2ccc(-c3ccc(NC(=O)C(C)(C)Oc4ccc(F)cc4)cc3)cc2)CC1 [Example 72, 2-(4-fluorophenoxy)-2-methyl-N-(4′-((4-methylpiperazin-1-yl)methyl)-[1,1′-biphenyl]-4-yl)propanamide] | 1000 to 5000
CN(C)Cc1ccc(-c2ccc(NC(=O)C(C)(C)Oc3ccc(F)cc3)nc2)cc1 [Example 80, N-(5-(4-((dimethylamino)methyl)phenyl)pyridin-2-yl)-2-(4-fluorophenoxy)-2-methylpropanamide] | 1000 to 5000
CC(C)(Oc1ccc(F)cc1)C(=O)Nc1ccc(-c2ccc(CN3CCOCC3)cc2)cn1 [Example 81, 2-(4-fluorophenoxy)-2-methyl-N-(5-(4-(morpholinomethyl)phenyl)pyridin-2-yl)propanamide] | < 1000
CC(C)(Oc1ccc(F)cc1)C(=O)Nc1ccc(-c2ccc3c(c2)OCO3)cc1 [Example 88, N-(4-(benzo[d][1,3]dioxol-5-yl)phenyl)-2-(4-fluorophenoxy)-2-methylpropanamide] | 1000 to 5000
CC(C)(C)OCc1ccc(-c2ccc(NC(=O)C(C)(C)Oc3ccc(F)cc3)cc2)cc1 [Example 89, N-(4′-(tert-butoxymethyl)-[1,1′-biphenyl]-4-yl)-2-(4-fluorophenoxy)-2-methylpropanamide] | < 1000
CCCc1ccc(-c2ccc(NC(=O)C(C)(C)Oc3ccc(F)cc3)cc2)cn1 [Example 91, 2-(4-fluorophenoxy)-2-methyl-N-(4-(6-propylpyridin-3-yl)phenyl)propanamide] | 1000 to 5000
COCc1ccc(-c2ccc(NC(=O)C(C)(C)Oc3ccc(F)cc3)cc2)cc1F [Example 93, N-(3′-fluoro-4′-(methoxymethyl)-[1,1′-biphenyl]-4-yl)-2-(4-fluorophenoxy)-2-methylpropanamide] | > 5000
CCOc1ccc(-c2ccc(NC(=O)C(C)(C)Oc3ccc(OC)cc3)cc2)cn1 [Example 94, N-(4-(6-ethoxypyridin-3-yl)phenyl)-2-(4-methoxyphenoxy)-2-methylpropanamide] | 1000 to 5000
COc1ccc(OC(C)(C)C(=O)Nc2ccc(-c3cnc(N(C)C)nc3)cc2)cc1 [Example 95, N-(4-(2-(dimethylamino)pyrimidin-5-yl)phenyl)-2-(4-methoxyphenoxy)-2-methylpropanamide] | 1000 to 5000
COCc1ccc(-c2ccc(NC(=O)C(C)(C)Oc3ccc(Cl)cc3Cl)cc2)cc1 [Example 96, 2-(2,4-dichlorophenoxy)-N-(4′-(methoxymethyl)-[1,1′-biphenyl]-4-yl)-2-methylpropanamide] | > 5000
